# Reference: patent publication US20240018125A1, “CYCLIC ISOTHIOUREA DERIVATIVES AS CXCR4 MODULATORS” (ERMIUM THERAPEUTICS, priority 2020, published 2024)
# Counter-ions that a name gives are not always drawn.
# Test system: not given
# Experiment: not given
# Conditions: not given
row,SMILES,melting point [°C]
1,"Fc1cccc2c1CN1C(CSC3=NCc4ccccc4N3)=CSC1=N2 (as salt: hydrochloride) [Example 18, 3-(((3,4-dihydroquinazolin-2-yl)thio)methyl)-6-fluoro-5H-thiazolo[2,3-b]quinazoline dihydrochloride]",193 to 203
2,"CCCCC1CN=C(SCC2=CSC3=Nc4ccccc4CN23)N1 (stereo not drawn) (as salt: hydrochloride) [Example 29, 3-(((5-butyl-4,5-dihydro-1H-imidazol-2-yl)thio)methyl)-5H-thiazolo[2,3-b]quinazoline dihydrochloride]",227 to 234
3,"CCCCN1CCN=C1SCC1=CSC2=NCc3ccccc3CN12 (as salt: hydrochloride) [Example 37, 3-(((1-butyl-4,5-dihydro-1H-imidazol-2-yl)thio)methyl)-5,10-dihydrobenzo[e]thiazolo[3,2-a][1,3]diazepine dihydrochloride]",206 to 212
4,"C1=C(CSC2=NCc3ccccc3N2)N2CCc3ccccc3N=C2S1 (as salt: hydrochloride) [Example 35, 3-(((3,4-dihydroquinazolin-2-yl)thio)methyl)-5,6-dihydrobenzo[d]thiazolo[3,2-a][1,3]diazepine dihydrochloride]",248 to 249
5,"COc1ccc(C[C@@H]2CN3C(CSC4=NCc5ccccc5N4)=CSC3=N2)cc1 (as salt: hydrochloride) [Example 124, (R)-3-(((1,4-dihydroquinazolin-2-yl)thio)methyl)-6-(4-methoxybenzyl)-5,6-dihydroimidazo[2,1-b]thiazole dihydrochloride]",150 to 164
6,Cl.c1ccc2c(c1)CN=C(SCc1csc3nc4ccccc4n13)N2 [Example 96],> 250
7,"c1ccc2c(c1)CN=C(SCCCCN1CCCC1)N2 (as salt: hydrochloride) [Example 137, 2-((4-(pyrrolidin-1-yl)butyl)thio)-1,4-dihydroquinazoline dihydrochloride]",78 to 85
8,"CC1(C)CN2C(CSC3=NCc4ccccc4N3)=CSC2=N1 (as salt: hydrochloride) [Example 3, 3-(((3,4-dihydroquinazolin-2-yl)thio)methyl)-6,6-dimethyl-5,6-dihydroimidazo[2,1-b]thiazole dihydrochloride]",245 to 249
9,"C1=C(CSC2=N[C@@H](c3ccccc3)[C@H](c3ccccc3)N2)N2Cc3ccccc3CN=C2S1 (as salt: hydrochloride) [Example 24, 3-((((4S,5S)-4,5-diphenyl-4,5-dihydro-1H-imidazol-2-yl)thio)methyl)-5,10-dihydrobenzo[e]thiazolo[3,2-a][1,3]diazepine dihydrochloride]",178 to 185
10,"CC1(C)c2ccccc2N=C2SC=C(CSC3=NCc4ccccc4N3)N21 (as salt: hydrochloride) [Example 95, 3-(((1,4-dihydroquinazolin-2-yl)thio)methyl)-5,5-dimethyl-5H-thiazolo[2,3-b]quinazoline dihydrochloride]",180 to 185
11,"Fc1ccc2c(c1)CN1C(CSC3=NCc4ccccc4N3)=CSC1=N2 (as salt: hydrochloride) [Example 84, 3-(((1,4-dihydroquinazolin-2-yl)thio)methyl)-7-fluoro-5H-thiazolo[2,3-b]quinazoline dihydrochloride]",> 250
12,"CC1(C)CN2C(CSC3=NCc4ccccc4CN3)=CSC2=N1 (as salt: hydrochloride) [Example 7, 3-(((2,5-dihydro-1H-benzo[e][1,3]diazepin-3-yl)thio)methyl)-6,6-dimethyl-5,6-dihydroimidazo[2,1-b]thiazole dihydrochloride]",127 to 134
13,"CC1(C)N=C(SCC2=CSC3=NC(Cc4ccccc4)CN23)Nc2ccccc21 (stereo not drawn) (as salt: hydrochloride) [Example 87, 6-benzyl-3-(((4,4-dimethyl-1,4-dihydroquinazolin-2-yl)thio)methyl)-5,6-dihydroimidazo[2,1-b]thiazole dihydrochloride]",50 to 52
14,"C1=C(CSC2=NCCc3ccccc3N2)N2CC(Cc3ccccc3)N=C2S1 (stereo not drawn) (as salt: hydrochloride) [Example 88, 6-benzyl-3-(((4,5-dihydro-1H-benzo[d][1,3]diazepin-2-yl)thio)methyl)-5,6-dihydroimidazo[2,1-b]thiazole dihydrochloride]",50 to 53
15,"CC1(c2ccccc2)CN2C(CSC3=NCc4ccccc4N3)=CSC2=N1 (stereo not drawn) (as salt: hydrochloride) [Example 38, 3-(((3,4-dihydroquinazolin-2-yl)thio)methyl)-6-methyl-6-phenyl-5,6-dihydroimidazo[2,1-b]thiazole dihydrochloride]",230 to 235
16,"OC1(CSC2=NCc3ccccc3N2)CSC2=N[C@H](c3ccccc3)[C@@H](c3ccccc3)N21 (relative stereo) (as salt: hydrochloride) [Example 17, trans-3-(((3,4-dihydroquinazolin-2-yl)thio)methyl)-5,6-diphenyl-2,3,5,6-tetrahydroimidazo[2,1-b]thiazol-3-ol dihydrochloride]",195 to 200
17,"C1=C(CSC2=NCc3ccccc3N2)N2CC(Cc3cccs3)N=C2S1 (stereo not drawn) (as salt: hydrochloride) [Example 63, 3-(((3,4-dihydroquinazolin-2-yl)thio)methyl)-6-(thiophen-2-ylmethyl)-5,6-dihydroimidazo[2,1-b]thiazole dihydrochloride]",215 to 220
18,"C1=C(CSC2=Nc3ccccc3C(c3ccccc3)N2)N2Cc3ccccc3CN=C2S1 (stereo not drawn) (as salt: hydrochloride) [Example 27, 3-(((4-phenyl-3,4-dihydroquinazolin-2-yl)thio)methyl)-5,10-dihydrobenzo[e]thiazolo[3,2-a][1,3]diazepine dihydrochloride]",203 to 210
19,"CCCCN1C(SCC2=CSC3=NC(Cc4ccccc4)CN23)=NCc2ccccc21 (stereo not drawn) (as salt: hydrochloride) [Example 99, 6-benzyl-3-(((1-butyl-1,4-dihydroquinazolin-2-yl)thio)methyl)-5,6-dihydroimidazo[2,1-b]thiazole dihydrochloride]",50 to 58
20,"C1=C(CSC2=NCC(C3CCCCC3)N2)N2Cc3ccccc3CN=C2S1 (stereo not drawn) (as salt: hydrochloride) [Example 26, 3-(((4-cyclohexyl-4,5-dihydro-1H-imidazol-2-yl)thio)methyl)-5,10-dihydrobenzo[e]thiazolo[3,2-a][1,3]diazepine dihydrochloride]",174 to 180
21,"C1=C(CSC2=NCc3ccccc3N2)N2C(=Nc3ccccc3C2c2ccccc2)S1 (stereo not drawn) (as salt: hydrochloride) [Example 43, 3-(((3,4-dihydroquinazolin-2-yl)thio)methyl)-5-phenyl-5H-thiazolo[2,3-b]quinazoline dihydrochloride]",184 to 190
22,"Fc1ccc2c(c1)N=C1SC=C(CSC3=NCc4ccccc4N3)N1C2 (as salt: hydrochloride) [Example 82, 3-(((1,4-dihydroquinazolin-2-yl)thio)methyl)-8-fluoro-5H-thiazolo[2,3-b]quinazoline dihydrochloride]",> 250

# Test system: peripheral blood mononuclear cells (PBMCs) from healthy donors
# Experiment: IFN production by R848-activated PBMCs, quantified with twINNE luciferase reporter cell line
# Format: cell-based, human
# Conditions: Homo sapiens, PBMC; read-out: IC50 of anti-inflammatory activity (IFN production by activated PBMCs)
# Procedure, shortened: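 Functional IFN was quantified by luciferase output from the twINNE ISRE-reporter line after 24 h on conditioned supernatants. Those supernatants came from human PBMCs (4.10^6/mL) pre-treated with compound and then stimulated for 24 h with 5 μg/mL resiquimod. IC50s were fitted by nonlinear variable-slope regression.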
row,SMILES,IC50 [µM]
1,"Clc1cccc2c1NC(SCCCCN1CCCC1)=NC2 [Example 153, 8-chloro-2-((4-(pyrrolidin-1-yl)butyl)thio)-1,4-dihydroquinazoline dihydrochloride]",≤ 10
2,"Clc1ccc2c(c1)CN=C(SCCCCN1CCCCC1)N2 [Example 164, 6-chloro-2-((4-(piperidin-1-yl)butyl)thio)-1,4-dihydroquinazoline dihydrochloride]",≤ 10
3,"CCCCC1CN=C(SCC2=CSC3=Nc4ccc(Cl)cc4CN23)N1 (stereo not drawn) [Example 41, 3-(((5-butyl-4,5-dihydro-1H-imidazol-2-yl)thio)methyl)-7-chloro-5H-thiazolo[2,3-b]quinazoline dihydrochloride]",≤ 10
4,"F[C@H]1CCN(CCSC2=NCc3ccccc3N2)C1 [Example 156, (S)-2-((2-(3-fluoropyrrolidin-1-yl)ethyl)thio)-1,4-dihydroquinazoline dihydrochloride]",10 to 32
5,"CC1(C)CN2C(CSC3=NCc4ccccc4CN3)=CSC2=N1 [Example 7, 3-(((2,5-dihydro-1H-benzo[e][1,3]diazepin-3-yl)thio)methyl)-6,6-dimethyl-5,6-dihydroimidazo[2,1-b]thiazole dihydrochloride]",> 32
6,"C1=C(CSC2=NCc3ccccc3N2)N2CC(C3CCCCC3)N=C2S1 (stereo not drawn) [Example 15, 6-cyclohexyl-3-(((3,4-dihydroquinazolin-2-yl)thio)methyl)-5,6-dihydroimidazo[2,1-b]thiazole dihydrochloride]",≤ 10
7,"CC1(c2ccccc2)CN2C(CSC3=NCc4ccccc4N3)=CSC2=N1 (stereo not drawn) [Example 38, 3-(((3,4-dihydroquinazolin-2-yl)thio)methyl)-6-methyl-6-phenyl-5,6-dihydroimidazo[2,1-b]thiazole dihydrochloride]",≤ 10
8,"c1ccc2c(c1)CN=C(SCCN1[C@@H]3CCC[C@H]1CC3)N2 [Example 133, 2-((2-((1R,5S)-8-azabicyclo[3.2.1]octan-8-yl)ethyl)thio)-3,4-dihydroquinazoline dihydrochloride]",≤ 10
9,"Clc1ccc2c(c1)CN=C(SCCCN1CCCC1)N2 [Example 161, 6-chloro-2-((3-(pyrrolidin-1-yl)propyl)thio)-1,4-dihydroquinazoline dihydrochloride]",≤ 10
10,"Fc1cccc2c1CN=C(SCC1=CSC3=NC(Cc4ccccc4)CN13)N2 (stereo not drawn) [Example 117, 6-benzyl-3-(((5-fluoro-1,4-dihydroquinazolin-2-yl)thio)methyl)-5,6-dihydroimidazo[2,1-b]thiazole dihydrochloride]",≤ 10
11,"CC1(C)c2ccccc2N=C2SC=C(CSC3=NCc4ccccc4N3)N21 [Example 95, 3-(((1,4-dihydroquinazolin-2-yl)thio)methyl)-5,5-dimethyl-5H-thiazolo[2,3-b]quinazoline dihydrochloride]",≤ 10
